Measurements as given in PMC11285977, “Identification of drug-like molecules targeting the ATPase activity of dynamin-like EHD4” (PLOS ONE, 2024).
Like-named read-outs stand apart in the source and are kept apart here.

Tests used:
EHD4^ΔN [1] = target: T1, EHD4^ΔN (Mus musculus, UniProt Q9EQP2); experiment: Malachite green (MLG)-based liposome-stimulated ATPase assay of EHD4ΔN; type: biochemical; conditions: read-out: IC50, EHD4ΔN ATPase inhibition
T1 construct: mouse EHD4 (Uniprot Q1MWP8, residues 22–541, EHD4^ΔN); His6 followed by PreScission cleavage site (N, cleaved yes); made in house; host or cells: E. coli BL21 DE3 Rosetta
T1 sequence (Q9EQP2 22-541): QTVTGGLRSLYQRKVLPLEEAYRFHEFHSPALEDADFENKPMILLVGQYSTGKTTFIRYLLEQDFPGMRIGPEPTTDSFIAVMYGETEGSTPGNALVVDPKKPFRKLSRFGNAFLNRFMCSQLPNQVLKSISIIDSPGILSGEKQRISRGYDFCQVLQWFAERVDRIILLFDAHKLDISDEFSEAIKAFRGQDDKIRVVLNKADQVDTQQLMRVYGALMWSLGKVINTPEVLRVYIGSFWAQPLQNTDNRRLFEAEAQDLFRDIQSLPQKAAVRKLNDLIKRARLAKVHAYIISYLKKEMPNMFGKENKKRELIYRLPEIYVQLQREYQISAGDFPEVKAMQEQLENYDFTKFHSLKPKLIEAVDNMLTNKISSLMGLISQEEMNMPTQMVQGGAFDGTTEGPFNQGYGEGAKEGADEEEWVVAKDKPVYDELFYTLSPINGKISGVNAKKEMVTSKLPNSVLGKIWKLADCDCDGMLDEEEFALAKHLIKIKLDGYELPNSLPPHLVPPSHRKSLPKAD
Description: ATPase assays were performed in a 384 well plate at 25°C (if not otherwise indicated). The assay buffer contained 20 mM HEPES, 150 mM KCl, 0.5 mM MgCl2, pH 7.5. 30 μM of ATP was mixed with 50 μg/ml DOPS in assay buffer. Reaction was started by adding 200 nM EHD4^ΔN. At any given time-point, 25 μl of the reaction was taken out and mixed with 75 μl of the dye in a 384 well plate. The reaction gets quenched by the addition of the dye which denatures the protein. Absorbance at 650 nm was measured in a plate reader (Tecan, Infinite M200).
Screening was conducted at the Screening Unit of the Leibniz-Forschungsinstitut für Molekulare Pharmakologie (FMP) using a kinase drug library and the ‘diversity set’. 15,840 compounds were tested as singlets in 384 well plate format. A master mix (MM) was prepared in the assay buffer to have a final ATP concentration of 30 μM and DOPS concentration of 50 μg/ml. A 10 mM DMSO solution of the compounds was serially diluted, first with DMSO and then with the MM to a final concentration of 10 μM (1% of DMSO), using the Tecan-Evo workstation (pipetting robot). EHD4^ΔN (200 nM) was pipetted using multi-drop dispensing cassette. To have homogenous enzymatic activity, the plates were vortexed using a microplate mixer at 2,000 rpm for 10 s. The plates were incubated for 15 min at room temperature and 75 μl of MLG dye added with the cassette. The plates were measured in a Perkin Elmer Envision plate reader.
Data were analyzed with an automated pipeline using KNIME software. For the individual plates, the corresponding Z´ values and SNR were calculated. Compared to the control´s absorbance at 650 nm (Abs650), compounds were classified as inhibitors if the %Abs650 was ≤ 25%. These hits were picked from the drug library and used for further validation of IC50 determination and counter screening. IC50 values were determined in the same setup with varying inhibitor concentrations from 0.125 μM to 50 μM.

EHD2 = target: T2, EHD2 (Mus musculus, UniProt Q8BH64); experiment: HPLC-based EHD2 ATPase assay; type: biochemical; conditions: 5 μM EHD2, 500 μg/ml Folch liposomes, 50 μM ATP, 30°C
T2 construct: Mouse EHD2 (Uniprot Q8BH64, residues 1–543); made in house
T2 sequence (Q8BH64 1-543): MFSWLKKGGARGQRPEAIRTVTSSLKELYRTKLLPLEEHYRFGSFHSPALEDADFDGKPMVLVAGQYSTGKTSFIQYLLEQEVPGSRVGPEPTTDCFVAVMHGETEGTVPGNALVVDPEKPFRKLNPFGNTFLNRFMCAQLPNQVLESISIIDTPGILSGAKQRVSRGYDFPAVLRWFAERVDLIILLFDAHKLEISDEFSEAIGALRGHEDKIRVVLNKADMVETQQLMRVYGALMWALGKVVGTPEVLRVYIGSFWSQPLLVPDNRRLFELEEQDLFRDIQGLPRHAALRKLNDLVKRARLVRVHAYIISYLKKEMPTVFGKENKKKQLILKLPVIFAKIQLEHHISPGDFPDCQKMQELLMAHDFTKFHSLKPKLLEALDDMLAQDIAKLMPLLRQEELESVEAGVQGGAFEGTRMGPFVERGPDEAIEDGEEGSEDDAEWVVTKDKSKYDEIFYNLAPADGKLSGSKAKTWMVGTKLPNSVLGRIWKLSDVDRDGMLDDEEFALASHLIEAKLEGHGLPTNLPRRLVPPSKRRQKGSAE
Description: ATPase assay was performed as mentioned above and at defined time points, reaction aliquots were diluted three times in reaction buffer (50 mM Tris, 150 mM NaCl, pH 7.5) and quickly flash frozen in liquid nitrogen. Samples were applied to an HPLC and nucleotides were separated with reversed phase column (C18 100*4.6 mm) equilibrated with running buffer containing 100 mM potassium phosphate buffer pH 6.5, 10 mM tetrabutylammonium bromide, 7.5% (v/v) acetonitrile. Adenine nucleotides were detected by absorption at 254 nm and quantified by integrating the corresponding nucleotide peaks and determining the ADP/ATP ratios.
Fig 5 Biochemical characterization of the primary hits. A One-hour time course of the MLG-based enzymatic ATPase assay in the presence of 50 μM inhibitor. EHD4^ΔN (blue curve) represents the positive control. B Primary hits were validated at 50 μM inhibitor concentration in an HPLC setup to exclude assay bias. ATPase assays done in A and B were in standard conditions. C Primary hits were tested against EHD2. Only MS8 had no effect on EHD2 ATPase activity. ATPase assay was done at an EHD2 concentration of 5 μM in the presence of 500 μg/ml Folch liposomes and 50 μM ATP in assay buffer at 30°C. D Changes in melting temperature of 5 μM EHD4^ΔN were studied in the presence of 50 μM inhibitor by thermal shift assay. MS1 and MS10 destabilized the protein, as evident by negative ΔTm, whereas MS8 had no effect on the stability of EHD4^ΔN. […] Shown is an IC50 curve plotted with an inhibitor concentration range from 0.125 μM to 50 μM. F MS8 substructure obtained by dissecting the diphenlyether bond. […]
Supplementary file pone.0302704.s004.tif: S4 Fig DNM1L and EHD2 enzymatic assay. […] B Initial velocities of DNM1L GTPase activity at 300 nM DNM1L, and, 500 μg/ml synthetic DOPS, T = 25°C and at different GTP concentrations were determined by a linear fit. C Km was determined by first calculating the amount of hydrolyzed GTP in (B) using the standard curve reported in S2C Fig and then plotting the initial rates of the reactions versus the substrate concentration. […]

EHD4^ΔN [2] = target: T1, EHD4^ΔN; experiment: Thermal shift assay (TSA); type: binding; conditions: 5 μM EHD4ΔN, 50 μM inhibitor
Description: TSA was done in a CFX96 touch-real time PCR using a fluorescent dye from ThermoFisher Scientific (catalogue number 4461146). Reactions (5 μM EHD4^ΔN, 50 μM inhibitor and 1X dye) were prepared on ice, to a final volume of 50 μl and transferred to a 96 well PCR plate and then sealed with a plastic film. CFX96 was precooled to 4°C and the PCR plate was inserted. The fluorescence was measured from 4°C to 80°C with 0.5°C temperature steps. Protein melting temperature was calculated with the provided software (Bio-Rad) and plotted as bar diagram using GraphPad Prism 7.05.

DNM1L = target: T3, DNM1L (Homo sapiens, UniProt O00429); experiment: MLG-based stimulated GTPase assay of DNM1L (counter-screen); type: biochemical; conditions: 300 nM DNM1L, 40 μM GTP, 25°C; inhibitor 0.125 μM to 50 μM (IC50 curve) or 10 μM (time course)
T3 construct: human DNM1L isoform 2 (UniProtID: O00429-3, residues 1–710); made in house
T3 sequence (O00429 1-710 isoform O00429-3): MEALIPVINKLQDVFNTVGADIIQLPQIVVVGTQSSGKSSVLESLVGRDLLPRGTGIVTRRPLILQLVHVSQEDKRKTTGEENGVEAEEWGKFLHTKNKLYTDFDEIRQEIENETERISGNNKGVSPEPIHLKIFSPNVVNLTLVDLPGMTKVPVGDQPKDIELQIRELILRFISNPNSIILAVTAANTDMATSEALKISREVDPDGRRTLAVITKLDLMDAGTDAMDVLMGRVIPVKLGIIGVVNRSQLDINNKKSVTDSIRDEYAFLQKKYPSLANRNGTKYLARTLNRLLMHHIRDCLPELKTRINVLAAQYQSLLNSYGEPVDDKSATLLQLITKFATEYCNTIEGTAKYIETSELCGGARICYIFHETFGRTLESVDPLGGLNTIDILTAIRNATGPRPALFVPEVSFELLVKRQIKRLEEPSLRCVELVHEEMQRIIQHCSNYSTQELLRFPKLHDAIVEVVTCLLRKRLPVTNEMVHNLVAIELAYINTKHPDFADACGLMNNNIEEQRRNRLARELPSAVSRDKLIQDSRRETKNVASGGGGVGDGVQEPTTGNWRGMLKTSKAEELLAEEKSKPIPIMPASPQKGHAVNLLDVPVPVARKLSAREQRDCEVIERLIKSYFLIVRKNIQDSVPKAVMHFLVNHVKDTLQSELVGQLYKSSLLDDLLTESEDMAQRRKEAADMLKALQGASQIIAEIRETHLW
Description: Fig 5 Biochemical characterization of the primary hits. A One-hour time course of the MLG-based enzymatic ATPase assay in the presence of 50 μM inhibitor. EHD4^ΔN (blue curve) represents the positive control. B Primary hits were validated at 50 μM inhibitor concentration in an HPLC setup to exclude assay bias. ATPase assays done in A and B were in standard conditions. C Primary hits were tested against EHD2. Only MS8 had no effect on EHD2 ATPase activity. ATPase assay was done at an EHD2 concentration of 5 μM in the presence of 500 μg/ml Folch liposomes and 50 μM ATP in assay buffer at 30°C. D Changes in melting temperature of 5 μM EHD4^ΔN were studied in the presence of 50 μM inhibitor by thermal shift assay. MS1 and MS10 destabilized the protein, as evident by negative ΔTm, whereas MS8 had no effect on the stability of EHD4^ΔN. […] Shown is an IC50 curve plotted with an inhibitor concentration range from 0.125 μM to 50 μM. F MS8 substructure obtained by dissecting the diphenlyether bond. This substructure was used in our chemical search to have the highest diversity of the chemical space and the optimal coverage of chemical vectors to gain a structure-activity relationship.Data points represents the mean of two or more independent experiments and the error bar signifies the range or standard deviation. […] TEXT PRINTED IN THE PICTURE: (D) EHD4^ΔN: Tm = 44.5 °C DOUBTS OF THE COPYIST ABOUT THIS PICTURE: Panel D: 'EHD4^ΔN Tm = 44.5 °C' is the only printed result. It refers to the protein itself (reference melting temperature), not to one of the inhibitors MS1, MS8 or MS10, so it may not count as a result for a substance.
Supplementary file pone.0302704.s004.tif: S4 Fig DNM1L and EHD2 enzymatic assay. A EHD2 ATPase activity by an HPLC-based method. Assay conditions were 5 μM EHD2, 50 μM ATP and 1 mg/ml Folch liposomes at 30°C. […] C Km was determined by first calculating the amount of hydrolyzed GTP in (B) using the standard curve reported in S2C Fig and then plotting the initial rates of the reactions versus the substrate concentration. […]

[3] = compounds picked from the drug library, duplicates, inhibitor 0.125 μM to 50 μM, 200 nM EHD4ΔN, 30 μM ATP, 50 μg/ml DOPS

Row | Compound | IC50 (EHD4^ΔN [1]; [3]) | IC50 (EHD4^ΔN [1]; repurchased compounds) | effect on EHD2 enzymatic (ATPase) activity (EHD2) | effect on EHD4ΔN stability (thermal shift) (EHD4^ΔN [2]) | ΔTm at 50 µM (EHD4^ΔN [2]; Tm of protein alone 44.5°C) | effect on stimulated GTPase activity of DNM1L (DNM1L)
1 | O=C(CCCCCn1sc2ccccc2c1=O)Nc1ccccc1O [MS1, N-(2-hydroxyphenyl)-6-(3-oxo-2,3-dihydro-1,2-benzothiazol-2-yl)hexanamide] | 0.92 µM | 2.4 µM | inhibited | destabilizing effect | -5 °C | did not interfere
2 | Cc1csc(NC(=O)c2cccc(Oc3ccccc3)c2)n1 [MS8, N-(4-methyl-1,3-thiazol-2-yl)-3-phenoxybenzamide] | 3.8 µM | 4.9 µM | no effect | no such effect | – | did not inhibit
3 | Oc1cc2c(cc1C(c1ccc(C(F)(F)F)cc1)N1CCOCC1)OCO2 (stereo not shown) [MS10, 6-(Morpholino(4-(Trifluormethyl)phenyl)methyl)-1,3-Benzodioxol-5-ol] | 2.9 µM | 4.8 µM | inhibited | diminished EHD4^ΔN stability | – | did not interfere
